Assay results reported in patent publication US20250302975A1, “METHODS AND COMPOSITIONS FOR AGONISING TLR3” (priority 2024, published 2025).

Tests used:
[1] = system: CT26 tumors induced by i.p. inoculation; details: reference [17]; cited from earlier work
RAW-Blue cells = RAW-Blue cells / Quanti-Blue SEAP assay, in vitro immunogenicity (Example 1); format: cell-based; parameters: dose or concentration left out as unconfirmed; details: 24 h
Procedure: RAW-Blue cells (InvivoGen) were grown in Dulbecco's Modified Eagle's Medium (DMEM) supplemented with 10% (v/v) heat-sterilized fetal bovine serum (FBS; Atlanta Biologicals) and 1% (v/v) penicillin/streptomycin (p/s; Thermo Fisher Scientific). Normocin ([…]) and zeocin ([…]) were also added according to the supplier's instructions (InvivoGen). CT26 cells obtained from the ATCC were grown in Roswell Park Memorial Institute (RPMI) 1640 medium and DMEM, respectively, each supplemented with 10% (v/v) FBS and 1% (v/v) p/s.
Lipopolysaccharide (LPS; InvivoGen) was used as a positive control. After the incubation, 20 μL of the supernatant was mixed with 180 μL of Quanti-Blue solution (InvivoGen) and incubated at room temperature for 6 h. The absorbance was then measured at 630 nm using a microplate reader (Tecan).

[2] = system: CT26 tumors induced by i.p. inoculation; experiment: CT26 colon cancer i.p. model, i.p. treatment (Example 1); format: in vivo, BALB/c mice; details: for tumor growth inhibition: i.p. treatment on days 3, 10 and 17, compared to PBS control
Procedure: (§1) Female BALB/c and C57BL/6 mice (6-7 weeks old) were purchased from the Jackson Laboratory. All animal studies were approved by and conducted according to the regulation of the Institutional Animal Care and Use Committee of the University of California, San Diego. CT26 cells were administered via the intraperitoneal (i.p.) and subcutaneous (s.c.) routes. […] Treatments were administered three times at weekly intervals. The body circumference and weight were recorded for 40 days at 2-day intervals and mice were euthanized when the circumference reached ˜8 cm. To establish the CT26 colon cancer s.c. model, CT26 cells (1.5×10^5 cells in 15 μL PBS) were mixed with 15 μL Matrigel (Corning) and injected s.c. into the left flank of BALB/c mice. […] The tumor volumes, calculated using the equation tumor width^2×tumor length)/2, and body weight were recorded for 40 days at 2-day intervals and mice were euthanized when the tumor volume reached ˜1500 mm^3.

s.c. CT26 tumors = experiment: CT26 colon cancer s.c. model, intratumoral treatment (Example 1); format: in vivo, BALB/c mice; details: i.t. treatment
Procedure: as §1

Molecule: ODN1826
- impact on CT26 tumors (previous work) [1]: minimal impact

Molecule: polyinosinic:polycytidylic acid [poly(I:C)]
- SEAP levels versus PBS-treated control (RAW-Blue cells): did not differ significantly
- tumor growth inhibition [2]: slight inhibitory effect, albeit not statistically significant
- body weight of CT26-bearing mice ([2]; weight gain is due to growth of the tumor): increased
- tumor growth by day 26 (s.c. CT26 tumors): 30 fold

Molecule: O=C1[O][Pt]2([NH][C@@H]3CCCC[C@H]3[NH]2)[O]C1=O [oxaliplatin]
- survival rate ([2]; compared to mice treated with CCMV or poly(I:C) alone): slightly increased the survival rate
- tumor growth inhibition [2]: significantly inhibited tumor growth
- tumor volume (s.c. CT26 tumors; day 26): ~233 mm^3
